The term EC50 denotes the concentration at which the effect is half-maximal. What is called IC50 is the concentration that inhibits the measured activity by half.

Data set [1] in a line: Precipitation at 100 μM concentration (footnote of Table 3). Set-up: key: *: precipitation occurs at 100 μM concentration. The data set is classed as physicochemical. The settings on record: printed in column C of Table 3.
Data set [2] deals with guinea-pig papillary muscle. The experiment in a line: Cardiotonic effect in isolated, electrically driven, right ventricular papillary muscle, without and with carbachol. The note with it: for EC50: Cavia porcellus; for Ratio B/A of EC50: with 10 μM carbachol / without carbachol. Here is the method: The cardiotonic action of the compound was studied in isolated, electrically driven, right ventricular papillary muscle of guinea-pig.
A = experiments carried out without carbachol
B = experiments carried out in the presence of 10 μM carbachol

The next data set concerns troponin. Put plainly: Retention time in troponin high-performance liquid affinity chromatography (HPLAC) column, calcium dependent binding to troponin. The settings on record: for Ratio Ca^2+ /EDTA (retention times in troponin-HPLAC column): Ca^2+ solution / EDTA solution; for Retention time in troponin-HPLAC column, Ca^2+ solution: mobile phase with 30 mM calcium; for Retention time in troponin-HPLAC column, Ca^2+ solution / Retention time in troponin-HPLAC column, EDTA solution: flow rate 1 ml/min; for Retention time in troponin-HPLAC column, EDTA solution: mobile phase without calcium (EDTA). Here is the method: The contraction in cardiac muscle and in vascular smooth muscle is triggered by the binding of calcium to troponin and to calmodulin, respectively. […] Commercially available troponin was coupled to the matrix of SelectiSpher-10™ Activated Tresyl silica HPLAC column (size 10 cm×5 mm). The compounds were run through the column with the flow rate 1 ml/min and detected by UV-spectrophotometrically.

The target in data set [3] is T1, cardiac phosphodiesterase III (PDEIII), dog (Canis lupus familiaris, UniProt A0A8I3NYE0).
T1 construct: enzyme preparation isolated from dog and guinea-pig heart; from tissue; host or cells: dog heart
T1 sequence (A0A8I3NYE0 1-1135): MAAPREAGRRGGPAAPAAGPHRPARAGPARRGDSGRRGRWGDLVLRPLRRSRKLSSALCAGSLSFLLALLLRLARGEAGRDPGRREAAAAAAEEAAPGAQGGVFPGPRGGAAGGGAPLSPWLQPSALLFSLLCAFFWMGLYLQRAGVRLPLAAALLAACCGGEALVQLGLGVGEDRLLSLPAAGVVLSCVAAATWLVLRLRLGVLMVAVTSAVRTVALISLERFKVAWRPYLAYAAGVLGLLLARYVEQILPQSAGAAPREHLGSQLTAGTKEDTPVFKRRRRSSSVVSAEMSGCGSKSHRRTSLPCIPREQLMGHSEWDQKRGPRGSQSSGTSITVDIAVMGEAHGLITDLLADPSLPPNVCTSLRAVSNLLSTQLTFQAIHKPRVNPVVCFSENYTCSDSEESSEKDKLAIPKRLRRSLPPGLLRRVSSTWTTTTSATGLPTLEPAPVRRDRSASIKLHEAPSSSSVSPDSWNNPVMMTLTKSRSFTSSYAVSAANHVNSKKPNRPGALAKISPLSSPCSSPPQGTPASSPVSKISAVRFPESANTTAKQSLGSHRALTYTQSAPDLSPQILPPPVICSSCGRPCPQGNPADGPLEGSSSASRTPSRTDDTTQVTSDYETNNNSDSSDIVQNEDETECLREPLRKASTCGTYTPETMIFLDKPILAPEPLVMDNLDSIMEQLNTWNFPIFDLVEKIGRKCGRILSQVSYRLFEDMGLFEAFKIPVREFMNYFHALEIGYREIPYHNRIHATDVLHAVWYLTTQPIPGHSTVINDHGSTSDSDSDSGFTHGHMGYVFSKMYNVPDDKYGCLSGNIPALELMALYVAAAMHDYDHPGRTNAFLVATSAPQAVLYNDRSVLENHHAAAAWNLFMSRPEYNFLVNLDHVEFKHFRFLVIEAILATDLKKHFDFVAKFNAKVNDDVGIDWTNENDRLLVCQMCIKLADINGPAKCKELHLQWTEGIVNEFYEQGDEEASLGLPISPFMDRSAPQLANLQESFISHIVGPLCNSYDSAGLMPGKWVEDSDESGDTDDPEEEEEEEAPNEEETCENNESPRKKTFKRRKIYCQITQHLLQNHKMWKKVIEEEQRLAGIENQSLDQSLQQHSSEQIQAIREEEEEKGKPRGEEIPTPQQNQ
The experiment in a line: Inhibition of cardiac phosphodiesterase III, dog heart enzyme preparation. The data set is classed as biochemical.

Data set [4] concerns the target T2, cardiac phosphodiesterase III (PDEIII), guinea-pig (Cavia porcellus, UniProt H0VIU9).
T2 construct: enzyme preparation isolated from dog and guinea-pig heart; from tissue; host or cells: guinea-pig heart
T2 sequence (H0VIU9 1-1132): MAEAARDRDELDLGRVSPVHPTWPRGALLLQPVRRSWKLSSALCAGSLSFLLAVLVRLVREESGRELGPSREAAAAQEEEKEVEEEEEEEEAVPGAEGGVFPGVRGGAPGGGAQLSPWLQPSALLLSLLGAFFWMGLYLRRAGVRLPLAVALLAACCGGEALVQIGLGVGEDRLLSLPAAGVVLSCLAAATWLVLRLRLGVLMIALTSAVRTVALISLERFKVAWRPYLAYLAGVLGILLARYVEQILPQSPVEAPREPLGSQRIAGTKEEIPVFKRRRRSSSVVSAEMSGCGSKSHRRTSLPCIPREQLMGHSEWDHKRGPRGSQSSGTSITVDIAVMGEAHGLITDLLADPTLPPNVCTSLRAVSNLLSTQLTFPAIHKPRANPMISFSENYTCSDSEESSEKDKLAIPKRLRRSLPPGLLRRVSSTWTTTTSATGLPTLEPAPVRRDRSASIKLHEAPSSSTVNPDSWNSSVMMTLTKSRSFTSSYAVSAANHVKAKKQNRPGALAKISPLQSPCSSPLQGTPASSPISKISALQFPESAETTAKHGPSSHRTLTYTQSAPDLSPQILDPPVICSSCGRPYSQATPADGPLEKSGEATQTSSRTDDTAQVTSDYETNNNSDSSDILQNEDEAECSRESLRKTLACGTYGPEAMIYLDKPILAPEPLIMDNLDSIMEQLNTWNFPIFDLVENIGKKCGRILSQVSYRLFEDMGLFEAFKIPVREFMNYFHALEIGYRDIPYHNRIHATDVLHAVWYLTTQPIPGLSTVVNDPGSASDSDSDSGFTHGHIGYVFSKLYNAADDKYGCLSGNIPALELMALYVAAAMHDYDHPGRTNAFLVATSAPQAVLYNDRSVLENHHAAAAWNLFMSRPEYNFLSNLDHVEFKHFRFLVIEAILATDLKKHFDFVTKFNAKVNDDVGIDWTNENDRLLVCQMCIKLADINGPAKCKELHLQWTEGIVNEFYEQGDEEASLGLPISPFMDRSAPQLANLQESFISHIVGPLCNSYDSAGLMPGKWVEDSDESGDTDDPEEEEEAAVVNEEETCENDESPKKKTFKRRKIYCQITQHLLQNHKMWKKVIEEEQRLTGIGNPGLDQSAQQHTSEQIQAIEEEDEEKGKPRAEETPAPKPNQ
Put plainly: Inhibition of cardiac phosphodiesterase III, guinea-pig heart enzyme preparation. The data set is classed as biochemical. The source says: The PDEIII inhibition was studied by using enzyme preparation isolated from dog and guinea-pig heart according to Alajoutsijarvi and Nissinen (Anal. Biochem. 165, 128-132, 1987).

The test system of data set [5] is guinea-pig papillary muscle. The experiment in a line: Ability to induce tonic contraction in papillary muscle in the absence of extracellular calcium. The note with it: drug concentration 100 μM; no extracellular calcium. The protocol: The cardiotonic action of the compound was studied in isolated, electrically driven, right ventricular papillary muscle of guinea-pig. In order to compare the cardiotonic action based on PDEIII inhibition to that based on the other mechanisms the experiments were carried out in normal Tyrode's bathing solution (Otani et al., Japan. J. Pharmacol. 45, 425, 1987) and also in the solution with carbachol to eliminate the cardiotonic action due to the PDEIII inhibition (Alousi & Johnson, Circulation, 73 (suppl. III), 10-23, 1986).
C = ability to induce tonic contraction in the absence of extracellular
calcium; drug concentration 100 μM

Where two headings read alike, the source gives them in different places.

Regarding `CC(=O)C(=NNc1ccc(C2=NNC(=O)CC2)cc1)C(C)=O` [Example 7, 6-[4-(1,1-diacetylmethylidenehydrazino)phenyl]-4,5-dihydropyridazin-3(2H)on], in data set [1], the precipitation entry was “*”. In addition, the EC50 in data set [2] (in the presence of 10 μM carbachol, read-out: EC50 cardiotonic effect (B)) was determined as 2700 nM. In data set [2] (without carbachol, read-out: EC50 cardiotonic effect (A)), the EC50 amounted to 740 nM. The “Ratio B/A of EC50” value in data set [2] came to 3.6. Moreover, in the data set with troponin, the “Ratio Ca^2+ /EDTA (retention times in troponin-HPLAC column)” value is reported as 1.29; the “Retention time in troponin-HPLAC column, Ca^2+ solution” value is listed as 5.4 min; the “Retention time in troponin-HPLAC column, EDTA solution” value was found to be 4.2 min. For the same molecule, in data set [3] (dog heart, read-out: IC50-value, inhibition of cardiac phosphodiesterase III, Dog), the IC50 was 230 nM.

In the case of `Cc1[nH]c(=O)c(C#N)cc1-c1ccncc1` [milrinone, reference compound], in data set [2] (read-out: EC50 cardiotonic effect (A)), the EC50 was found to be 360 nM. Besides, the “Ratio B/A of EC50” value in data set [2] was found to be 15.3. Further, in the data set on troponin, the “Ratio Ca^2+ /EDTA (retention times in troponin-HPLAC column)” value is 1.00; the “Retention time in troponin-HPLAC column, Ca^2+ solution” value came to 1.2 min; the “Retention time in troponin-HPLAC column, EDTA solution” value was determined as 1.2 min. Further, the midpoint of inhibition in data set [4], the IC50, lay at 440 nM. The “C: ability to induce tonic contraction in the absence of extracellular calcium” value in data set [5] is listed as “no”. For the same molecule, the IC50 in data set [3] was found to be 580 nM.

Source of the values: patent US5019575A, “Novel pyridazinone compounds, compositions thereof and method of use” (Orion-yhtyma Oy, priority 1989, dated 1991).
